# Measurements published in patent US20250195474A1, “Piezo Inhibition for Wound Healing” (priority 2022, published 2025).
# No end group written: not given here.
# Columns and labels:
# human adipocytes = assay: Calcium imaging of hydrogel-bound adipocytes (Fluo-4 AM); type: cell-based; conditions: stretched human adipocytes
# Description: Calcium imaging was used to determine in vitro Ca^2+ flow in hydrogel-bound adipocytes with or without mechanical strain and with or without Piezo1 inhibitor treatment. A Fluo-4, AM cell permeant kit (ThermoFisher, Cat: F-14201) was used per the manufacturer's instructions. […] Imagej was used for image quantification.
# dorsal excisional wounds = assay: Splinted dorsal excisional wounding with inhibitor injected at POD 0; type: in vivo, mouse
# wounds = assay: Visium spatial transcriptomic analysis of wounds; type: in vivo, mouse
# Description: Wound specimens were rapidly harvested and flash frozen in OCT. Using the Visium Tissue Optimization Slide and Reagent Kit, permeabilization time was optimized at a thickness at 10 μm per section and 37 minutes for mouse tissue. Following cryo-sectioning at −20 degrees onto gene expression slides the expression slide and reagent kit was used to produce sequencing libraries. The libraries were then sequences using NextSeq (Illumina). Following demultiplication the raw FASTQ files and histology images were processed by sample with the Space Ranger software for genome alignment. The raw spaceranger output files for each sample was then read into a Seurat class object in R using Seurat's Load10× function. Data was normalized using the SCT transform with default parameters. To ascertain the integration of our scRNAseq and Visium spatial analysis we employed the FindTransferAnchors( ) function from Seurat, which allowed the alignment of data using the two datasets. This cross-platform linkage is performed serially in an unconstrained and constrained fashion.
# [1] = test system: human foreskin xenograft wounds; assay: Human foreskin xenograft wound model; type: in vivo; conditions: POD 14
# Description: For the xenograft model, adult immunocompromised CD-1 nude mice were purchased from The Jackson Laboratory (Bar Harbor, ME). Mice were maintained at the Stanford University Research Animal Facility, SIM-1 Barrier Facility in accordance with Stanford University guidelines. All experiments were performed under an approved APLAC protocol (APLAC #11048). 3 mice were used for each group.
# Discarded postnatal human foreskin samples were collected after circumcision at the Lucille Packard Children's Hospital at Stanford under a Stanford University Institutional Review Board (IRB) approved protocol (IRB #45219). Samples were not used if collected >8 hours after circumcision; samples were kept in Dulbecco's Modified Eagle Medium (ThermoFisher Scientific™, Waltham, MA) on ice until grafting. Foreskin was prepared by removal of all subcutaneous tissue, including muscle, and divided into 1 cm sections to be grafted.
# Nude mice were induced and maintained with 2-4% isoflurane (Product: 502017, MWI Veterinary Supply Co.®; Boise, ID) at a rate of 2 L/min. While anesthetized, Betadine Surgical Scrub Veterinary (Avrio Health L.P.™, Stamford, CT) and sterile alcohol prep pads (FisherScientific™, Pittsburgh, PA) were used to prepare the dorsum. A 1.2 cm full-thickness excision of dorsal skin was created with forceps and sharp scissors. The foreskin graft was then placed into the full-thickness wound. […]
# [2] = test system: human xenograft fibroblasts; assay: scRNA-seq of human xenograft wounds at POD 14; type: in vivo
# Description: To assess if P1i acts on similar fibroblast clusters to cause regeneration, scRNA-seq analysis was performed on xenografts harvested at POD 14 post injury using a hybrid human-mouse xeno-transcriptome (FIG. 12A). Mouse cells were removed informatically and subsequent analysis focused exclusively on human cells (FIG. 41A). Partitional analysis identified 8 transcriptionally distinct clusters (FIG. 12B-C), corresponding to fibroblast and keratinocyte populations (FIG. 41A). Each cluster was present in all three treatment conditions but Cluster 3 was elevated in P1i treated wounds (FIG. 12D, FIG. 41B). […] This cluster was also enriched for pathways such as “skin morphogenesis”, as well as “neural crest differentiation” (FIG. 12G). By contrast, Cluster 0 was enriched for pathways related to adipocyte differentiation (FIG. 41C) and elevated expression of genes related to adipocyte-fibroblast transition (FIG. 41C) including expression of JUN a transcription factor associated with fibrosis (FIG. 41D).
# human fibroblasts = assay: Human fibroblasts in 3D collagen gels with stretching; type: cell-based
# Description: To further confirm that human cluster 3 represented a pro-regenerative ADF population we utilized our in vitro collagen gel system. We first, FACS sorted human fibroblasts based on expression of cluster 3 markers including ROBO2, CD29, and SFRP2 and seeded them into 3D collagen gels (FIG. 42B). […] In contrast, stretching with P1 inhibition kept the fibroblasts in a more adipocyte-like phenotype, with high expression of PPARg and low expression of Collagen Type I, similar to fibroblasts in an unstretched state (FIG. 42B).
# To determine if P1i may activate […] Wnt pathways to maintain cluster 3 in an adipocyte-like phenotype, we applied Wnt5a recombinant protein to the in vitro collagen gel system (FIG. 42C). […] In summary, P1i treatment may revert fibroblasts towards the mechanically naïve fibroblast pro-regenerative fibroblast population through the activation of canonical Wnt pathways and thereby preventing the transition to pro-scarring phenotypes defined by CJUN and VCAM1 expression.
# wound cells = assay: scRNA-seq and CellChat analysis of POD 14 wounds
substance,measurement,setting,value
"GsMTx4 (GCLEFWWKCNPNDDKCCRPKLKCSKLFKLCNFSF; ends and bridges not checked; cysteine pairing not given here; UniProt Q7YT39 47-80, looked up) [P1i]",calcium staining with stretching,human adipocytes,decreased
same,time to complete wound re-epithelialization,"dorsal excisional wounds; 30 uL of 0.2 mg/ml intradermal at wound edge, POD 0",did not significantly affect
same,Oil Red O staining and IF for cytokeratins 14/19 (regenerating appendages),dorsal excisional wounds; POD 14,presence of putative regenerating sebaceous glands/HF
same,"mechanical properties (tensile testing, Young's modulus)",dorsal excisional wounds; POD 14,reverted scars to more unwounded-like mechanical properties
same,adipocyte-derived fibroblasts (ADFs) in wounds,"dorsal excisional wounds; POD 14, FACS and histology",absent
same,structures consistent with unerupted hair follicles,"dorsal excisional wounds; POD 14, single injection at POD 0",numerous structures morphologically consistent with unerupted hair follicles
same,Col1 and α-SMA,dorsal excisional wounds; POD 14 and POD 30,reduced
same,ECM density,dorsal excisional wounds; POD 14 and POD 30,less dense
same,hair follicle formation,dorsal excisional wounds; POD 30,allowed for hair follicle formation
same,differential interaction maps (Visium),wounds; POD 14,strong interactions between adipocytes and fibroblasts
same,fibroblast scRNA-seq cluster 0 (mechanically sensitive) spatial enrichment,wounds; POD 14,highly enriched in PBS-treated POD 14 wounds compared to P1i or P2i treated wounds
same,fibroblast scRNA-seq cluster 5 (mechanically naive) spatial presence,wounds; POD 14,observed
same,"spatial expression of Piezo1, Piezo2, Ptk2 and Yap1",wounds; POD 14,appeared mostly at the basal region
same,spatially variable features (gene expression),wounds; POD 14,high expression of markers associated with the epidermis including Krt1 and Krt14
same,adipocyte and epithelial cells in the spatial environment,"wounds; POD 14, vs PBS",enriched
same,ECM ultrastructure,[1],indistinguishable from that of unwounded xenograft skin
same,"expression of TWIST2, WNT5A, CALU and SFRP2",[2]; POD 14,highly expressed
same,representation of human cluster 3,[2]; POD 14,elevated
same,CellChat cluster 0 activity with other clusters,"[2]; POD 14, vs control wounds",downregulation
same,"phenotype of human fibroblasts (PPARg, Collagen Type 1)",human fibroblasts,a more adipocyte like phenotype with high expression of PPARg and low expression of Collagen Type 1
same,relative adipocytes and fibroblasts among sequenced wound cells,wound cells; POD 14,relatively more adipocytes and fewer fibroblasts
same,CellChat interactions between cluster 5 fibroblasts and adipocytes,"wound cells; POD 14, vs control wounds",enhanced interactions between cluster 5 fibroblasts and adipocytes
same,"CellChat signaling of adipocyte pathways (Leptin, Chemerin, PD-L1)","wound cells; POD 14, vs control wounds",enhanced signaling of known adipocyte pathways
same,CellChat signaling of cluster 5 fibroblasts with other cell types,"wound cells; POD 14, vs control wounds",increase in signaling between cluster 5 fibroblasts and most other cell types
